Test [1] addresses Cbl-b (Homo sapiens (Human), UniProt Q13191). In words: Cbl-b LCK Ub TR-FRET assay (Cbl-b Lck HTRF). Type of test: biochemical. To be noted: for IC50: Cbl-b LCK Ub TR-FRET, Example 121; for (fold-selectivity) Cbl-b and C-Cbl Selectivity: ratio C-cbl Lck HTRF IC50 / Cbl-b Lck HTRF IC50. In outline: (§1)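 Detection reagents added, brief spin, 20 min RT. IC50 fit normalized to no-LCK (low) and DMSO (high) controls.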

In test [2] the target is c-Cbl (Homo sapiens (Human), UniProt P22681). In words: C-Cbl LCK Ub TR-FRET assay (C-cbl Lck HTRF). Type of test: biochemical. In outline:
as §1
For orientation: In TR-FRET formats the signal depends on donor and acceptor labels being close together.

Test [3] addresses Human Cbl-b (residues 40-426) (Homo sapiens (Human), UniProt Q13191). Put plainly: Cbl-b SPR assay. Type of test: binding. Conditions: for Fold of selectivity: C-cbl SPR Kd vs Cbl-b SPR Kd; for Kd: SPR, 20° C. In outline: (§2)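 Binding is measured by surface plasmon resonance against both isoforms, with double referencing and 1:1 kinetic fitting. Dissociation time is tuned to 4-5 half-lives.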
In general terms: Surface plasmon resonance follows binding to a sensor surface in real time, without labels.

The target in test [4] is c-Cbl (residues 47-435) (Homo sapiens (Human), UniProt P22681). Put plainly: c-Cbl SPR assay. To be noted: 20° C. Type of test: binding. In outline: as §2
Sequence of c-Cbl (residues 47-435) (P22681 47-435): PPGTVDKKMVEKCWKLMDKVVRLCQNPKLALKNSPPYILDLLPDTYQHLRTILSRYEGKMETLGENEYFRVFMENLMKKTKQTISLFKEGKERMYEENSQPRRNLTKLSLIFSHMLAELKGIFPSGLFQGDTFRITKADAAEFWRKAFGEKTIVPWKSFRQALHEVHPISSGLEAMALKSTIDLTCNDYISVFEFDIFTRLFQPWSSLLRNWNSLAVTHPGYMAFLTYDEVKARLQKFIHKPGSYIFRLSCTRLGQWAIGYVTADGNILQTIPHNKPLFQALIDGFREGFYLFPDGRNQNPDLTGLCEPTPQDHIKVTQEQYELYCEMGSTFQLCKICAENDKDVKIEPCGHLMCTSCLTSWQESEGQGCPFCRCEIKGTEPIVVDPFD

Sequence of Cbl-b (Q13191 40-426): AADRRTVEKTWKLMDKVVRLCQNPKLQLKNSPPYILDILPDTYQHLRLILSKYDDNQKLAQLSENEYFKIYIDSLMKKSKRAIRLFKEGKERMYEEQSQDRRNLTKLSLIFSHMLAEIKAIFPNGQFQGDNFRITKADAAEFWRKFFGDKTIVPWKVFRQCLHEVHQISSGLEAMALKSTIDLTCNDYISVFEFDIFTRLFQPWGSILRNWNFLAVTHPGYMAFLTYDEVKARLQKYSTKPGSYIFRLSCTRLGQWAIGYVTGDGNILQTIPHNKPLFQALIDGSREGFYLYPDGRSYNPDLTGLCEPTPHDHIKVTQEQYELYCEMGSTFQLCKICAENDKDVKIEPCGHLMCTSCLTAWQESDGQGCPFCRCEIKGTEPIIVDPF
Sequence of Human Cbl-b (residues 40-426) (Q13191 40-426): as above
Sequence of c-Cbl (P22681 47-435): as the sequence (P22681 47-435) above

One may read the IC50 as the concentration needed to halve the response being measured. As usually defined, the Kd is the free concentration of one partner at which half of the binding sites on the other are occupied at equilibrium, for simple one-to-one binding. Take `CO[C@H]1C[C@](c2cccc(N3Cc4c(cc(CNCC5(C)CC5(F)F)cc4C(F)(F)F)C3=O)c2)(c2nncn2C)C1` (stereo partly drawn) [Compound 501, 6-((((2,2-difluoro-1-methylcyclopropyl)methyl)amino)methyl)-2-(3-((1r,3r)-3-methoxy-1-(4-methyl-4H-1,2,4-triazol-3-yl)cyclobutyl)phenyl)-4-(trifluoromethyl)isoindolin-1-one]: the IC50 was 11 nM in test [1] and 52 nM in test [2]. Besides, in test [1], the “(fold-selectivity) Cbl-b and C-Cbl Selectivity” value is on record as 4.8x. In test [3], this compound displayed a Fold of selectivity of 16×. Also, the Kd worked out at 4.6 nM in test [3] and 81 nM in test [4].

As for `CO[C@H]1C[C@](c2cccc(N3Cc4c(cc(CN[C@@H]5C[C@H]5C)cc4C(F)(F)F)C3=O)c2)(c2nncn2C)C1` [Compound 502, 2-(3-((1r,3R)-3-methoxy-1-(4-methyl-4H-1,2,4-triazol-3-yl)cyclobutyl)phenyl)-6-((((1R,2R)-2-methylcyclopropyl)amino)methyl)-4-(trifluoromethyl)isoindolin-1-one], in test [1], inhibition was half-maximal at 9.4 nM (IC50); the “(fold-selectivity) Cbl-b and C-Cbl Selectivity” value amounted to 4.1x. The IC50 in test [2] is 39 nM. In test [3], this compound returned a Fold of selectivity of 14× and a Kd of 5 nM. Also, in test [4], the Kd came out at 69 nM.

For the compound `CO[C@H]1C[C@](c2cccc(N3Cc4c(cc(CNC[C@@H]5[C@@H](C)C5(F)F)cc4C(F)(F)F)C3=O)c2)(c2nncn2C)C1` [Compound 503, 6-(((((1S,3R)-2,2-difluoro-3-methylcyclopropyl)methyl)amino)methyl)-2-(3-((1r,3S)-3-methoxy-1-(4-methyl-4H-1,2,4-triazol-3-yl)cyclobutyl)phenyl)-4-(trifluoromethyl)isoindolin-1-one], in test [1], the IC50 was 8.5 nM; the “(fold-selectivity) Cbl-b and C-Cbl Selectivity” value is 3.0x. It took 26 nM to reach half-maximal inhibition in test [2] (IC50). In test [3], the Fold of selectivity was determined as 22× and the Kd amounted to 2 nM. Besides, the Kd in test [4] was 44 nM.

With `CO[C@H]1C[C@](c2cccc(N3Cc4c(cc(CNC5CC6(C5)CC6F)cc4C(F)(F)F)C3=O)c2)(c2nncn2C)C1` (stereo partly drawn) [Compound 504, 6-(((1-fluorospiro[2.3]hexan-5-yl)amino)methyl)-2-(3-((1r,3r)-3-methoxy-1-(4-methyl-4H-1,2,4-triazol-3-yl)cyclobutyl)phenyl)-4-(trifluoromethyl)isoindolin-1-one], in test [1], the IC50 came out at 13 nM; the “(fold-selectivity) Cbl-b and C-Cbl Selectivity” value amounted to 5.1x. In addition, in test [2], the IC50 was 68 nM. In test [3], this compound gave a Fold of selectivity of 16× and a Kd of 5.7 nM. Moreover, the Kd in test [4] was found to be 90 nM.

As for `CO[C@H]1C[C@](c2cccc(N3Cc4c(cc(CNC5CC(C#N)C5)cc4C(F)(F)F)C3=O)c2)(c2nncn2C)C1` (stereo partly drawn) [Compound 505, 3-(((2-(3-((1r,3r)-3-methoxy-1-(4-methyl-4H-1,2,4-triazol-3-yl)cyclobutyl)phenyl)-3-oxo-7-(trifluoromethyl)isoindolin-5-yl)methyl)amino)cyclobutanecarbonitrile], in test [1], half-maximal inhibition (IC50) required 7.3 nM; the “(fold-selectivity) Cbl-b and C-Cbl Selectivity” value stood at 4.1x. This compound returned an IC50 in test [2] of 30 nM. In test [3], the Fold of selectivity amounted to 12× and the Kd came out at 4.7 nM. For the same compound, in test [4], the Kd was found to be 64 nM.

For the compound `CO[C@H]1C[C@](c2cccc(N3Cc4c(cc(CNCC5(CF)CCC5)cc4C(F)(F)F)C3=O)c2)(c2nncn2C)C1` [Compound 507, 6-((((1-(fluoromethyl)cyclobutyl)methyl)amino)meth-yl)-2-(3-((1r,3r)-3-methoxy-1-(4-methyl-4H-1,2,4-triazol-3-yl)cyclobutyl)phenyl)-4-(trifluoromethyl)isoindolin-1-one], the IC50 is 9.3 nM in test [1] and 42 nM in test [2]. The “(fold-selectivity) Cbl-b and C-Cbl Selectivity” value in test [1] came to 4.5x. Besides, the Fold of selectivity in test [3] was 15×. Also, the Kd in test [3] was determined as 3.5 nM; in test [4] it was 52 nM.
